From patent publication US20220105150A1, “AMPHIPATHIC ALPHA-HELICAL ANTIMICROBIAL PEPTIDES TREAT INFECTIONS BY GRAM-NEGATIVE PATHOGENS” (priority 2019, published 2022)
In brackets after ≈: the same amount, converted by molar mass.

Columns and labels:
[1] = system: Acinetobacter baumannii strains resistant to Polymyxin B and Colistin; details: for MICGM: geometric mean of MIC values from seven strains resistant to Polymyxin B and Colistin; for MIC MB9941: strain MB9941; for MIC MB9941 / MIC MB9949 / MIC MB9951 / MIC MB9952 / MIC MB9953 / MIC MB9955 / MIC MB9963: Mueller-Hinton medium, 37° C., 24 h; for MIC MB9949: strain MB9949; for MIC MB9951: strain MB9951; for MIC MB9952: strain MB9952; for MIC MB9953: strain MB9953; for MIC MB9955: strain MB9955; for MIC MB9963: strain MB9963
[2] = Peptide hydrophobicity by RP-HPLC retention time; assay type: physicochemical; details: RP-HPLC retention time at pH 2, 25° C.
Method: Column: Zorbax 300 SB-C8, 150×2.1 mm ID, 5-μm particle size, 300-Å pore size; conditions, linear AB gradient (0.25% acetonitrile/min) at a flow-rate of 0.3 ml/min, where eluent A was 20 mM aq. TFA and eluent B was 20 mM TFA in acetonitrile and the temperature was 25° C. The sequences of the ten peptides (with seven peptides containing Lys specificity determinants at positions 13 and 16 of the non-polar face (see FIG. 1) are shown in Table 1G. Peptide denotions in FIG. 4 have been abbreviated from those shown in Table 1G; for example, D87(Lys1-6 Arg-1) has been shortened to D87(6 Arg-1). For the peptides without specificity determinants, we have added A13/A16 to the peptide denotions. It is interesting that the Dab containing peptides are more hydrophilic than the Dap containing peptides even thought the Dab containing peptides have an additional carbon atom per Dab residue.
Retention behavior in reversed-phase chromatography is an excellent method to represent overall peptide hydrophobicity. […] All ten peptides used in this study could be readily separated by reversed-phase chromatography with the seven peptides with specificity determinants being much more hydrophilic than the three control peptides without specificity determinants (FIG. 4). […]

Row | SMILES | MICGM [1] [µM] | MIC MB9941 [1] [µM] | MIC MB9949 [1] [µM] | MIC MB9951 [1] [µM] | MIC MB9952 [1] [µM] | MIC MB9953 [1] [µM] | MIC MB9955 [1] [µM] | MIC MB9963 [1] [µM] | Hydrophobicity pH 2 tR [2] [min]
1 | CC(=O)N[C@H](CCCCN)C(=O)N[C@H](CC(C)C)C(=O)N[C@H](CCN)C(=O)N[C@H](CO)C(=O)N[C@H](CC(C)C)C(=O)N[C@H](CC(C)C)C(=O)N[C@H](CCN)C(=O)N[C@@H](C(=O)N[C@H](CC(C)C)C(=O)N[C@H](CO)C(=O)N[C@H](CCN)C(=O)N[C@H](C)C(=O)N[C@H](C)C(=O)N[C@H](C)C(=O)N[C@H](C)C(=O)N[C@H](C)C(=O)N[C@H](CC(C)C)C(=O)N[C@H](CCN)C(=O)N[C@@H](C(=O)N[C@H](CC(C)C)C(=O)N[C@H](CC(C)C)C(=O)N[C@H](CCN)C(=O)N[C@H](C)C(=O)N[C@H](CC(C)C)C(=O)N[C@H](CO)C(=O)N[C@H](CCN)C(N)=O)[C@H](C)O)[C@H](C)O [D86(K13A/K16A)-(Lys^1-6Dab-1), Ac-KL(Dab)SLL(Dab)TLS(Dab)AAAAAL(Dab)TLL(Dab)ALS(Dab)-amide] | 0.9 | 1.5 (≈ 3.87 µg/mL) | 0.8 (≈ 2.07 µg/mL) | 0.8 (≈ 2.07 µg/mL) | 0.8 (≈ 2.07 µg/mL) | 0.8 (≈ 2.07 µg/mL) | 0.8 (≈ 2.07 µg/mL) | 0.8 (≈ 2.07 µg/mL) | 158.3
2 | CC(=O)N[C@H](CCCCN)C(=O)N[C@H](CC(C)C)C(=O)N[C@H](CN)C(=O)N[C@H](CO)C(=O)N[C@H](CC(C)C)C(=O)N[C@H](CC(C)C)C(=O)N[C@H](CN)C(=O)N[C@@H](C(=O)N[C@H](CC(C)C)C(=O)N[C@H](CO)C(=O)N[C@H](CN)C(=O)N[C@H](C)C(=O)N[C@H](C)C(=O)N[C@H](C)C(=O)N[C@H](C)C(=O)N[C@H](C)C(=O)N[C@H](CC(C)C)C(=O)N[C@H](CN)C(=O)N[C@@H](C(=O)N[C@H](CC(C)C)C(=O)N[C@H](CC(C)C)C(=O)N[C@H](CN)C(=O)N[C@H](C)C(=O)N[C@H](CC(C)C)C(=O)N[C@H](CO)C(=O)N[C@H](CN)C(N)=O)[C@H](C)O)[C@H](C)O [D105(K13A/K16A)-(Lys^1-6Dap-1), Ac-KL(Dap)SLL(Dap)TLS(Dap)AAAAAL(Dap)TLL(Dap)ALS(Dap)-amide] | 1.3 | 1.6 (≈ 4 µg/mL) | 0.8 (≈ 2 µg/mL) | 0.8 (≈ 2 µg/mL) | 1.6 (≈ 4 µg/mL) | 1.6 (≈ 4 µg/mL) | 1.6 (≈ 4 µg/mL) | 1.6 (≈ 4 µg/mL) | 172.3
